Test results from patent US4123612A, “7-(5-Am ino-5-carboxyvaleramido)-3-(carbamoyoloxymethyl)-3-cephem-4-carboxylic acid” (Eli Lilly and Company, priority 1974, dated 1978).

Experiments:
Pseudomonas sp. Ps 30 = test: Bauer-Kirby disc diffusion, zone of inhibition; assay type: cell-based
[1] = tested on: Staphylococcus aureus 3055; test: Bauer-Kirby disc diffusion, zone of inhibition; assay type: cell-based
[2] = tested on: Ascaris lumbricoides var. suum; test: anthelmintic evaluation in mice by treated feed, separate factors (Example 13); assay type: in vivo; conditions: 0.05 percent in diet, control 2.66
From the text: The feeds were utilized as diets for separate groups of mice, five mice per group. About twelve hours after initiation of the feeding, the mice were infected with Ascaris lumbricoides var. suum ova. Another group of five mice was fed the non-medicated feed to serve as a control but was similarly infected at the same time with Ascaris lumbricoides var. suum. All groups were fed their respective feed and maintained under normal laboratory conditions for a period of eight days, at which time all mice were taken off feed. On the ninth day, all mice were sacrificed and the lungs examined to determine the presence, and if present, numbers, of lesions of Ascaris lumbricoides var. suum.
In a further evaluation, the monoammonium salts of A16886I and A16886II were separately evaluated for the control of Ascaris lumbricoides var. suum. The evaluations were conducted in accordance with the procedure reported in Example 11 at a concentration in the diet of 0.05 percent.

[3] = tested on: Klebsiella-Aerobacter KA 25; test: Bauer-Kirby disc diffusion, zone of inhibition; assay type: cell-based
Salmonella typhosa SA 12 = test: Bauer-Kirby disc diffusion, zone of inhibition; conditions: Salmonella enterica
From the text: (§1) The evaluation was made on the monoammonium salts of separated factors I and II.

[4] = tested on: Klebsiella-Aerobacter KA 14; test: Bauer-Kirby disc diffusion, zone of inhibition; assay type: cell-based
physchem = conditions: 66% dimethylformamide-water
[5] = tested on: Staphylococcus aureus 3074; test: Bauer-Kirby disc diffusion, zone of inhibition; assay type: cell-based
Pseudomonas sp. Ps 24 = test: Bauer-Kirby disc diffusion, zone of inhibition; assay type: cell-based
Escherichia coli 0127 = test: Bauer-Kirby disc diffusion, zone of inhibition; assay type: cell-based
Salmonella typhosa SA 16 = test: Bauer-Kirby disc diffusion, zone of inhibition; conditions: Salmonella enterica
From the text: as §1

solubility = assay type: physicochemical
Escherichia coli EC 25 = test: Bauer-Kirby disc diffusion, zone of inhibition; assay type: cell-based
Proteus sp. PR6 = test: Bauer-Kirby disc diffusion, zone of inhibition; assay type: cell-based
Proteus sp. PR7 = test: Bauer-Kirby disc diffusion, zone of inhibition; assay type: cell-based

In the case of `NC(=O)OCC1=C(C(=O)O)N2C(=O)C(NC(=O)CCCC(N)C(=O)O)[C@H]2SC1` (stereo partly drawn) [A16886II, 7-(5-amino-5-carboxyvaleramido)-3-(carbamoyloxymethyl)-3-cephem-4-carboxylic acid], the zone of inhibition at 0.5 µg/disc (Pseudomonas sp. Ps 30; SP.PS30, 0.5 μg./disc) is reported as 0 mm, the zone of inhibition at 1 µg/disc (Pseudomonas sp. Ps 30; SP.PS30, 1.0 μg./disc) is reported as 0 mm and the zone of inhibition at 2.5 µg/disc (Pseudomonas sp. Ps 30; SP.PS30, 2.5 μg./disc) is reported as 0 mm. The zone of inhibition at 5 µg/disc (Pseudomonas sp. Ps 30; SP.PS30, 5 μg./disc) was 0 mm, the zone of inhibition at 10 µg/disc (Pseudomonas sp. Ps 30; SP.PS30, 10 μg./disc) was 0 mm and the zone of inhibition at 30 µg/disc (Pseudomonas sp. Ps 30; SP.PS30, 30 μg./disc) was 0 mm. The zone of inhibition at 0.5 µg/disc ([1]; 0.5 μg./disc) was 0 mm, the zone of inhibition at 1 µg/disc ([1]; 1.0 μg./disc) was 0 mm and the zone of inhibition at 2.5 µg/disc ([1]; 2.5 μg./disc) was 0 mm. For the same molecule, the zone of inhibition at 5 µg/disc ([1]; 5 μg./disc) was 0 mm, the zone of inhibition at 10 µg/disc ([1]; 10 μg./disc) was 0 mm and the zone of inhibition at 30 µg/disc ([1]; 30 μg./disc) was 12.4 mm. For the same molecule, the “Average Number of Lung Lesions Per Group” value [2] was 0.20, the zone of inhibition at 0.5 µg/disc ([3]; 0.5 μg./disc) was 0 mm and the zone of inhibition at 1 µg/disc ([3]; 1.0 μg./disc) was 0 mm. The zone of inhibition at 2.5 µg/disc ([3]; 2.5 μg./disc) was 0 mm, the zone of inhibition at 5 µg/disc ([3]; 5 μg./disc) was 7.4 mm and the zone of inhibition at 10 µg/disc ([3]; 10 μg./disc) was 10.1 mm. It also gave a zone of inhibition at 30 µg/disc ([3]; 30 μg./disc) of 15.6 mm, a zone of inhibition at 0.5 µg/disc (Salmonella typhosa SA 12) of 0 mm and a zone of inhibition at 1 µg/disc (Salmonella typhosa SA 12) of 7.5 mm. The zone of inhibition at 2.5 µg/disc (Salmonella typhosa SA 12) was 12.3 mm, the zone of inhibition at 5 µg/disc (Salmonella typhosa SA 12) was 15.6 mm and the zone of inhibition at 10 µg/disc (Salmonella typhosa SA 12) was 18.7 mm. It also gave a zone of inhibition at 30 µg/disc (Salmonella typhosa SA 12) of 23.8 mm, a zone of inhibition at 0.5 µg/disc ([4]; 0.5 μg./disc) of 0 mm and a zone of inhibition at 1 µg/disc ([4]; 1.0 μg./disc) of 0 mm. It also gave a zone of inhibition at 2.5 µg/disc ([4]; 2.5 μg./disc) of 0 mm, a zone of inhibition at 5 µg/disc ([4]; 5 μg./disc) of 10.8 mm and a zone of inhibition at 10 µg/disc ([4]; 10 μg./disc) of 13.7 mm. The zone of inhibition at 30 µg/disc ([4]; 30 μg./disc) was 20.1 mm, the pKa (physchem; pH 6.8, pK'a1) was 4 and the pKa (physchem; pH 6.8, pK'a2) was 5.3. The pKa (physchem; pH 6.8, pK'a3) was 9.2, the pKa (physchem; pH 6.8, pK'a4) was 10.5 and the pKa (physchem; pH 7.7, pK'a1) was 4.4. It also gave a pKa (physchem; pH 7.7, pK'a2) of 5.7, a pKa (physchem; pH 7.7, pK'a3) of 9.6 and a pKa (physchem; pH 7.7, pK'a4) of 10.4. The zone of inhibition at 0.5 µg/disc ([5]; 0.5 μg./disc) was 0 mm, the zone of inhibition at 1 µg/disc ([5]; 1.0 μg./disc) was 0 mm and the zone of inhibition at 2.5 µg/disc ([5]; 2.5 μg./disc) was 0 mm. For the same molecule, the zone of inhibition at 5 µg/disc ([5]; 5 μg./disc) was 0 mm, the zone of inhibition at 10 µg/disc ([5]; 10 μg./disc) was 0 mm and the zone of inhibition at 30 µg/disc ([5]; 30 μg./disc) was 10.1 mm. It also gave a zone of inhibition at 0.5 µg/disc (Pseudomonas sp. Ps 24; SP.PS24, 0.5 μg./disc) of 0 mm, a zone of inhibition at 1 µg/disc (Pseudomonas sp. Ps 24; SP.PS24, 1.0 μg./disc) of 0 mm and a zone of inhibition at 2.5 µg/disc (Pseudomonas sp. Ps 24; SP.PS24, 2.5 μg./disc, * = satellite colonies within zone (Factor II)) of 9.3 mm. It also gave a zone of inhibition at 5 µg/disc (Pseudomonas sp. Ps 24; SP.PS24, 5 μg./disc, * = satellite colonies within zone (Factor II)) of 12.3 mm, a zone of inhibition at 10 µg/disc (Pseudomonas sp. Ps 24; SP.PS24, 10 μg./disc) of 15.4 mm and a zone of inhibition at 30 µg/disc (Pseudomonas sp. Ps 24; SP.PS24, 30 μg./disc) of 20.2 mm. It also gave a zone of inhibition at 0.5 µg/disc (Escherichia coli 0127; 0.5 μg./disc) of 0 mm, a zone of inhibition at 1 µg/disc (Escherichia coli 0127; 1.0 μg./disc) of 0 mm and a zone of inhibition at 2.5 µg/disc (Escherichia coli 0127; 2.5 μg./disc) of 9.4 mm. The zone of inhibition at 5 µg/disc (Escherichia coli 0127; 5 μg./disc) was 12.9 mm, the zone of inhibition at 10 µg/disc (Escherichia coli 0127; 10 μg./disc) was 15.9 mm and the zone of inhibition at 30 µg/disc (Escherichia coli 0127; 30 μg./disc) was 19.7 mm. For the same molecule, the zone of inhibition at 0.5 µg/disc (Salmonella typhosa SA 16) was 0 mm, the zone of inhibition at 1 µg/disc (Salmonella typhosa SA 16) was 0 mm and the zone of inhibition at 2.5 µg/disc (Salmonella typhosa SA 16) was 7.5 mm. The zone of inhibition at 5 µg/disc (Salmonella typhosa SA 16) was 11 mm, the zone of inhibition at 10 µg/disc (Salmonella typhosa SA 16) was 13.4 mm and the zone of inhibition at 30 µg/disc (Salmonella typhosa SA 16) was 19.3 mm. The “solubility in acetonitrile and other organic solvents” value (solubility; acetonitrile and other organic solvents) was “essentially insoluble”, the “solubility in lower alkanols” value (solubility; lower alkanols) was “slightly soluble” and the solubility in water (solubility; water) was “very soluble”. The zone of inhibition at 0.5 µg/disc (Escherichia coli EC 25; EC25, 0.5 μg./disc) was 0 mm, the zone of inhibition at 1 µg/disc (Escherichia coli EC 25; EC25, 1.0 μg./disc) was 0 mm and the zone of inhibition at 2.5 µg/disc (Escherichia coli EC 25; EC25, 2.5 μg./disc) was 0 mm. The zone of inhibition at 5 µg/disc (Escherichia coli EC 25; EC25, 5 μg./disc) was 0 mm, the zone of inhibition at 10 µg/disc (Escherichia coli EC 25; EC25, 10 μg./disc) was 7.7 mm and the zone of inhibition at 30 µg/disc (Escherichia coli EC 25; EC25, 30 μg./disc) was 11.9 mm. For the same molecule, the zone of inhibition at 0.5 µg/disc (Proteus sp. PR6; 0.5 μg./disc) was 0 mm, the zone of inhibition at 1 µg/disc (Proteus sp. PR6; 1.0 μg./disc) was 0 mm and the zone of inhibition at 2.5 µg/disc (Proteus sp. PR6; 2.5 μg./disc) was 10.4 mm. It also gave a zone of inhibition at 5 µg/disc (Proteus sp. PR6; 5 μg./disc) of 13.6 mm, a zone of inhibition at 10 µg/disc (Proteus sp. PR6; 10 μg./disc) of 16.7 mm and a zone of inhibition at 30 µg/disc (Proteus sp. PR6; 30 μg./disc) of 22.2 mm. For the same molecule, the zone of inhibition at 0.5 µg/disc (Proteus sp. PR7; 0.5 μg./disc) was 0 mm, the zone of inhibition at 1 µg/disc (Proteus sp. PR7; 1.0 μg./disc) was 0 mm and the zone of inhibition at 2.5 µg/disc (Proteus sp. PR7; 2.5 μg./disc) was 0 mm. It also gave a zone of inhibition at 5 µg/disc (Proteus sp. PR7; 5 μg./disc) of 0 mm, a zone of inhibition at 10 µg/disc (Proteus sp. PR7; 10 μg./disc) of 0 mm and a zone of inhibition at 30 µg/disc (Proteus sp. PR7; 30 μg./disc) of 7.1 mm.
